The supplement of paper PMC10307832

Columns and labels:
Test in all cases: relative viability (nuclei count vs DMSO), 5 days (fraction); higher = more cells survive
[1] = compound: Cc1nc(C(=O)NCC(=O)O)c(O)c2ccc(Oc3ccccc3)cc12 [FG-4592] + Cc1cc(Nc2cc(N3CCN(C)CC3)nc(Sc3ccc(NC(=O)C4CC4)cc3)n2)n[nH]1 [Tozasertib] (partner 0.1 µM)
Method in brief: (§1)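 Relative viability is defined as nuclei in treated wells over nuclei in vehicle wells. Duplicate plates were run and medians reported. Lung cancer cell lines in 1536-well plates were dosed by pin tool one day after seeding, with one drug or with a fixed anchor-drug dose plus five library-drug doses (not always all listed) in √10 steps, and nuclei were counted after 5 days.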

[2] = compound: CC1=CC(=C(N1C2=CC=C(C=C2)Cl)C)C(=O)CN3CCCCC3 [IU1-47] + C[C@@H](Oc1cc(-c2cnn(C3CCNCC3)c2)cnc1N)c1c(Cl)ccc(F)c1Cl [Crizotinib] (partner 1 µM)
Method in brief: as §1

[3] = compound: Cc1nc(C(=O)NCC(=O)O)c(O)c2ccc(Oc3ccccc3)cc12 [FG-4592] + O=C(CCCCCCC(=O)Nc1ccccc1)NO [Vorinostat] (partner 1 µM)
Method in brief: as §1

[4] = compound: CC1=CC(=C(N1C2=CC=C(C=C2)Cl)C)C(=O)CN3CCCCC3 [IU1-47] + Nc1ncn([C@H]2C[C@H](O)[C@@H](CO)O2)c(=O)n1 [Decitabine] (partner 2 µM)
Method in brief: as §1

Cell Line | relative viability ([1]; first compound 0.08 µM) | relative viability ([1]; first compound 0.253 µM) | relative viability ([1]; first compound 0.8 µM) | relative viability ([1]; first compound 2.53 µM) | relative viability ([1]; first compound 8 µM) | relative viability ([2]; first compound 0.08 µM) | relative viability ([2]; first compound 0.253 µM) | relative viability ([2]; first compound 0.8 µM) | relative viability ([2]; first compound 2.53 µM) | relative viability ([2]; first compound 8 µM) | relative viability ([3]; first compound 0.08 µM) | relative viability ([3]; first compound 0.253 µM) | relative viability ([3]; first compound 0.8 µM) | relative viability ([3]; first compound 2.53 µM) | relative viability ([3]; first compound 8 µM) | relative viability ([4]; first compound 0.08 µM) | relative viability ([4]; first compound 0.253 µM) | relative viability ([4]; first compound 0.8 µM) | relative viability ([4]; first compound 2.53 µM) | relative viability ([4]; first compound 8 µM)
SK-LU-1 | 0.317 | 0.331 | 0.295 | 0.31 | 0.273 | 0.975 | 0.912 | 0.963 | 0.996 | 0.814 | 0.862 | 0.505 | 0.799 | 0.845 | 0.811 | 0.57 | 0.695 | 0.692 | 0.56 | 0.543
ChaGo-K-1 | 0.241 | 0.219 | 0.224 | 0.237 | 0.208 | 1.04 | 1.21 | 1.24 | 1.31 | 0.954 | 0.694 | 0.819 | 0.687 | 0.758 | 0.693 | 0.531 | 0.529 | 0.542 | 0.536 | 0.533
COR-L 105 | 0.348 | 0.375 | 0.359 | 0.297 | 0.35 | 0.793 | 0.839 | 0.767 | 0.94 | 0.627 | 0.723 | 0.755 | 0.843 | 0.699 | 0.769 | 0.793 | 0.624 | 0.677 | 0.751 | 0.66
NCI-H1975 | 0.772 | 0.78 | 0.868 | 0.783 | 0.683 | 1.04 | 1.01 | 1 | 1.01 | 0.845 | 0.723 | 0.644 | 0.748 | 0.767 | 0.653 | 0.397 | 0.381 | 0.585 | 0.361 | 0.378
NCI-H1993 | 0.613 | 0.584 | 0.604 | 0.441 | 0.548 | 0.928 | 0.84 | 0.965 | 0.85 | 0.864 | 1.06 | 0.69 |  | 0.642 | 0.814 | 0.602 | 0.641 | 0.628 | 0.687 | 0.537
RERF-LC-KJ | 0.485 | 0.448 | 0.578 | 0.543 | 0.463 | 0.805 | 0.86 | 0.787 | 0.848 | 0.884 | 0.672 | 0.629 | 0.705 | 0.486 | 0.701 | 0.784 | 0.912 | 0.673 | 0.639 | 0.578
NCI-H23 | 0.412 | 0.4 | 0.418 | 0.346 | 0.431 | 0.533 | 0.528 | 0.506 | 0.638 | 0.48 | 0.484 | 0.451 | 0.415 | 0.507 | 0.634 | 0.347 |  | 0.312 | 0.319 | 0.302
HCC-366 | 0.226 | 0.0945 | 0.123 | 0.0834 | 0.0885 | 0.38 | 0.633 | 0.562 |  | 0.393 | 0.263 | 0.269 | 0.185 | 0.308 | 0.33 | 0.375 | 0.382 | 0.349 | 0.389 | 0.272
EMC-BAC-2 | 0.262 | 0.277 | 0.27 | 0.301 | 0.286 | 0.802 | 0.863 | 0.752 | 0.835 | 0.75 | 0.43 | 0.467 |  | 0.561 | 0.366 | 1.07 | 1.03 | 0.996 | 1.07 | 0.924
NCI-H2405 | 0.631 |  | 0.763 | 0.735 | 0.757 | 0.901 | 0.837 | 0.778 | 0.878 | 0.836 | 0.767 | 0.906 | 0.92 | 0.942 | 0.961 | 0.839 | 0.762 | 0.769 | 0.779 | 0.765
NCI-H358 | 0.106 | 0.111 | 0.115 | 0.113 | 0.091 | 0.532 | 0.607 | 0.516 |  | 0.495 | 0.61 | 0.567 | 0.745 | 0.88 | 0.716 | 0.242 | 0.204 | 0.2 | 0.201 | 0.21
NCI-H1944 | 0.254 | 0.252 | 0.224 | 0.242 | 0.254 | 1.15 | 1.21 | 1.08 |  | 1.09 | 0.479 | 0.571 | 0.461 | 0.512 | 0.561 | 0.446 | 0.474 | 0.419 | 0.426 | 0.388
EPLC-272H | 0.24 | 0.286 | 0.204 | 0.378 | 0.271 | 0.957 | 0.918 | 0.862 |  | 0.984 | 0.41 | 0.487 | 0.41 | 0.559 | 0.472 | 0.362 | 0.38 | 0.4 |  | 0.34
NCI-H1915 | 0.405 | 0.439 | 0.497 | 0.444 | 0.369 | 0.973 | 0.892 | 0.915 |  | 0.907 | 0.452 | 0.489 | 0.469 | 0.442 | 0.468 | 0.269 | 0.256 | 0.27 | 0.25 | 0.247
NCI-H596 | 0.975 | 0.916 | 0.867 | 0.893 | 0.682 | 1.01 | 1.07 | 1.04 | 0.95 | 0.943 | 0.441 | 0.507 |  | 0.637 | 0.584 | 1.05 |  | 1.03 | 1.09 | 0.977
NCI-H322M | 0.469 | 0.46 | 0.442 | 0.518 | 0.396 | 1.02 | 0.923 | 0.888 | 1.07 | 0.954 |  | 0.823 | 0.772 | 0.898 | 0.822 | 0.776 | 0.807 | 0.645 | 0.683 | 0.652
NCI-H647 | 0.365 | 0.302 | 0.311 | 0.264 | 0.166 | 1.01 | 1.22 | 0.99 | 1.07 | 0.561 | 0.35 | 0.366 | 0.551 | 0.486 | 0.237 | 0.454 | 0.487 | 0.462 | 0.39 | 0.4
SK-MES-1 | 0.862 | 0.872 | 0.961 | 0.862 | 0.832 | 1.08 | 1.04 | 0.908 | 0.984 | 0.994 | 1.13 | 0.969 | 1.02 | 0.947 | 1.02 | 0.329 | 0.405 | 0.3 | 0.409 | 0.38
NCI-H2170 | 0.704 | 0.622 | 0.726 | 0.777 | 0.704 | 1.42 | 1.44 | 1.26 | 1.11 | 1.25 | 0.825 | 0.747 | 0.627 | 0.785 | 0.608 | 0.516 | 0.529 | 0.498 | 0.482 | 0.555
NCI-H2085 | 0.79 | 0.774 | 0.758 | 0.792 | 0.933 | 0.911 | 0.847 | 0.851 | 0.869 | 0.739 | 0.693 | 0.755 | 0.65 | 0.769 | 0.771 | 0.54 | 0.549 | 0.566 | 0.519 | 0.478
SW 1573 | 0.205 | 0.173 | 0.207 | 0.171 | 0.198 | 0.728 | 0.796 | 0.761 | 0.859 | 0.903 | 0.708 | 0.965 | 0.604 | 0.543 | 0.494 | 0.529 | 0.599 | 0.542 | 0.342 | 0.506
NCI-H727 | 0.608 | 0.591 | 0.757 | 0.807 | 0.678 | 0.929 |  | 0.857 | 0.798 | 0.658 | 1.07 | 1.17 | 1.28 | 1.33 | 1.21 | 0.875 | 0.894 | 0.989 | 0.722 | 0.866
NCI-H441 | 0.679 | 0.521 | 0.712 | 0.619 | 0.688 | 0.778 | 0.887 | 0.813 | 0.889 | 0.775 | 0.692 | 0.809 | 0.855 | 0.694 | 0.696 | 0.254 | 0.257 | 0.212 | 0.254 | 0.234
LOU-NH91 | 0.709 | 0.669 | 0.696 | 0.634 | 0.717 | 0.739 | 0.808 | 0.733 | 0.708 | 0.769 | 0.993 | 0.86 | 0.817 | 0.866 | 0.95 | 0.909 | 0.854 | 0.797 | 0.816 | 0.797
NCI-H3122 | 0.38 | 0.361 | 0.348 | 0.418 | 0.35 | 0.277 | 0.27 | 0.295 | 0.269 | 0.241 | 0.997 | 0.906 | 0.975 | 0.975 | 0.592 | 0.416 | 0.402 | 0.517 | 0.491 | 0.449
NCI-H460 | 0.381 | 0.419 | 0.42 | 0.592 | 0.487 | 0.955 | 1.1 | 1.05 | 0.861 | 1.46 | 0.707 | 0.691 | 0.771 | 0.748 | 0.755 | 0.536 | 0.494 | 0.563 | 0.51 | 0.579
NCI-H650 | 0.73 | 0.703 | 0.746 | 0.691 | 0.697 | 0.685 | 0.788 | 0.695 | 0.71 | 0.648 | 0.352 | 0.574 | 0.384 | 0.339 | 0.365 | 0.369 | 0.333 | 0.27 | 0.334 | 0.291
